# Reference: patent US4347319A, “Microbiological epoxidation process” (priority 1980, dated 1982)
# How the values were obtained:
# Format in all cases: cell-based
# [1] = system: Methylobacter bovis (CRL 19 PM5) NRRL B-11,217; test: Oxidation by washed cell suspensions of methane-grown cells; details: methane-grown washed cells, 30° C.; methane to methanol, alkene to 1,2-epoxide
# Method: (§1) The pH of the nutrient medium was adjusted to 7.0 by the addition of acid or base and 50 ml samples of the nutrient medium were charged into a plurality of 300 ml shaker flasks. The shaker flasks were inoculated with an inoculating loop of cells from an agar plate containing homogeneous colonies of the microorganisms on the plate (the purity of the isolates was confirmed by microscopic examination. The isolates had been maintained on agar plates under an atmosphere of methane and air having a 1:1 v/v gas ratio which had been transferred evey two weeks. The gaseous phase of the inoculated flasks was then replaced with a gas mixture comprised of methane and air having a ratio of 1:1 on a v/v basis. The inoculated flasks were sealed air tight and were incubated on a rotary shaker of orbital radius 2.5 cm at 250 rpm and at 30° C. for two days until turbidity in the medium had developed.
# (§2) The cells were harvested by centrifugation at 10,000×g. at 4° C. for 30 minutes. The cell pellet was washed twice with a 0.15 M phosphate buffer at a pH of 7.0 (containing 0.002 M MgCl2). The washed cells were then suspended in a 0.15 M phosphate buffer at pH 7.0.
# (§3) A 0.5 ml sample of each washed cell suspension (2 mg cells) was put into 10 ml vials at 4° C. which were sealed with a rubber cap. The gaseous phase of the vials was removed with vacuum and then was replaced with a gas mixture of the oxidative substrate (e.g., methane) and oxygen at a 1:1 v/v ratio. The vials were then incubated at 30 ° C. on a rotary shaker at 300 rpm. Samples of product (3 μl) were withdrawn periodically with a microsyringe and the products were analyzed by gas chromatography (ionization flame detector column).
# (§4) The newly discovered and isolated microorganism strains of the present invention were each grown aerobically in the presence of methane in the manner described above. The methane-grown microbial cells were then washed, recovered and put to use in oxidizing an oxidative substrate by the procedure described above except in the case of a liquid substrate 10 μl of the substrate were used.
# [2] = system: Methylobacter chroococcum (CRL 23 PM8) NRRL B-11,215; test: as above; details: methane-grown washed cells, 30° C.; methane to methanol, alkene to 1,2-epoxide
# Method: as §1, §2, §3, §4
# [3] = system: Methylobacter chroococcum (CRL M6) NRRL B-11,214; test: as above; details: methane-grown washed cells, 30° C.; methane to methanol, alkene to 1,2-epoxide
# Method: as §1, §2, §3, §4
# [4] = system: Methylobacter vinelandii (CRL M5Y) NRRL B-11,218; test: as above; details: methane-grown washed cells, 30° C.; methane to methanol, alkene to 1,2-epoxide
# Method: as §1, §2, §3, §4
# [5] = system: Methylobacterium organophilum (CRL 26 R6) NRRL B-11,222; test: as above; details: methane-grown washed cells, 30° C.; methane to methanol, alkene to 1,2-epoxide
# Method: as §1, §2, §3, §4
# [6] = system: Methylococcus capsulatus (CRL 25 PM13) NRRL B-11,221; test: as above; details: methane-grown washed cells, 30° C.; methane to methanol, alkene to 1,2-epoxide
# Method: as §1, §2, §3, §4
# [7] = system: Methylococcus capsulatus (CRL M1) NRRL B-11,219; test: as above; details: methane-grown washed cells, 30° C.; methane to methanol, alkene to 1,2-epoxide
# Method: as §1, §2, §3, §4
# [8] = system: Methylococcus minimus (CRL 24 PM12) NRRL B-11,220; test: as above; details: methane-grown washed cells, 30° C.; methane to methanol, alkene to 1,2-epoxide
# Method: as §1, §2, §3, §4
# [9] = system: Methylocystis parvus (CRL 18 PM4) NRRL B-11,204; test: as above; details: methane-grown washed cells, 30° C.; methane to methanol, alkene to 1,2-epoxide
# Method: as §1, §2, §3, §4
# [10] = system: Methylomonas agile (CRL 22 PM9) NRRL B-11,209; test: as above; details: methane-grown washed cells, 30° C.; methane to methanol, alkene to 1,2-epoxide
# Method: as §1, §2, §3, §4
# [11] = system: Methylomonas albus (CRL M8Y) NRRL B-11,207; test: as above; details: methane-grown washed cells, 30° C.; methane to methanol, alkene to 1,2-epoxide
# Method: as §1, §2, §3, §4
# [12] = system: Methylomonas methanica (CRL 21 PM7) NRRL B-11,206; test: as above; details: methane-grown washed cells, 30° C.; methane to methanol, alkene to 1,2-epoxide
# Method: as §1, §2, §3, §4
# [13] = system: Methylomonas methanica (CRL M4P) NRRL B-11,205; test: as above; details: methane-grown washed cells, 30° C.; methane to methanol, alkene to 1,2-epoxide
# Method: as §1, §2, §3, §4
# [14] = system: Methylomonas rosaceus (CRL M7P) NRRL B-11,213; test: as above; details: 30° C., methane to methanol, alkene to 1,2-epoxide
# Method: as §1, §2, §3, §4
# [15] = system: Methylomonas rubrum (CRL 20 PM6) NRRL B-11,211; test: as above; details: methane-grown washed cells, 30° C.; methane to methanol, alkene to 1,2-epoxide
# Method: as §1, §2, §3, §4
# [16] = system: Methylomonas rubrum (CRL M6P) NRRL B-11,210; test: as above; details: methane-grown washed cells, 30° C.; methane to methanol, alkene to 1,2-epoxide
# Method: as §1, §2, §3, §4
# [17] = system: Methylomonas streptobacterium (CRL 17 PM3) NRRL B-11,208; test: as above; details: methane-grown washed cells, 30° C.; methane to methanol, alkene to 1,2-epoxide
# Method: as §1, §2, §3, §4
# [18] = system: Methylosinus sporium (CRL 16 PM2) NRRL B-11,203; test: as above; details: methane-grown washed cells, 30° C.; methane to methanol, alkene to 1,2-epoxide
# Method: as §1, §2, §3, §4
# [19] = system: Methylosinus trichosporium (CRL 15 PM1) NRRL B-11,202; test: as above; details: methane-grown washed cells, 30° C.; methane to methanol, alkene to 1,2-epoxide
# Method: as §1, §2, §3, §4
# [20] = system: Methylomonas rosaceus (CRL M10P) NRRL B-11,212
# Method: as §1, §2, §3, §4
# [21] = system: Methylobacter bovis (CRL M1Y) NRRL B-11,216; test: Oxidation by washed cell suspensions of methane-grown cells; details: methane-grown washed cells, 30° C.; methane to methanol, alkene to 1,2-epoxide
# Method: as §1, with “The inoculated flasks were sealed air tight and were incubated on a rotary shaker of orbital radius 2.5 cm at 250 rpm and at 30° C. for two days until turbidity in the medium had developed.” left out
# as §2, §3, §4
compound,measurement,setting,value
C=C [Ethylene],Oxidative Conversion Rates,[1],1.3 μmole/hr/mg protein
same,Oxidative Conversion Rates,[2],1.2 μmole/hr/mg protein
same,Oxidative Conversion Rates,[3],1.6 μmole/hr/mg protein
same,Oxidative Conversion Rates,[4],1.2 μmole/hr/mg protein
same,Oxidative Conversion Rates,[5],0.9 μmole/hr/mg protein
same,Oxidative Conversion Rates,[6],0.8 μmole/hr/mg protein
same,Oxidative Conversion Rates,[7],5.7 μmole/hr/mg protein
same,Oxidative Conversion Rates,[8],1.2 μmole/hr/mg protein
same,Oxidative Conversion Rates,[9],0.9 μmole/hr/mg protein
same,Oxidative Conversion Rates,[10],2.2 μmole/hr/mg protein
same,Oxidative Conversion Rates,[11],1.8 μmole/hr/mg protein
same,Oxidative Conversion Rates,[12],2.1 μmole/hr/mg protein
same,Oxidative Conversion Rates,[13],1.0 μmole/hr/mg protein
same,Oxidative Conversion Rates,[14],2.9 μmole/hr/mg protein
same,Oxidative Conversion Rates,[15],1.1 μmole/hr/mg protein
same,Oxidative Conversion Rates,[16],0.7 μmole/hr/mg protein
same,Oxidative Conversion Rates,[17],0.7 μmole/hr/mg protein
same,Oxidative Conversion Rates,[18],1.3 μmole/hr/mg protein
same,Oxidative Conversion Rates,[19],2.5 μmole/hr/mg protein
same,Oxidative Conversion Rates,[20],4.7
same,Oxidative Conversion Rates,[21],0.64 μmole/hr/mg protein
